Experiment [1] deals with CBP occupancy at promoters (Lmnb1 transcription start site). As to the kind of experiment: Chromatin immunoprecipitation (ChIP) of CBP and H3K18ac at gene promoters. It counts as cell-based. Particulars: 10 nM, one day. As for the experimental part: FIG. 9 illustrates the ChIP analysis of samples isolated from cells cultured as previously described and then precipitated using antibodies specific for CBP, and for H3K18ac. A mock ChIP (No Antibody) was used as negative control. The amount of chromatin recovered at the Lmnb1 transcription start site was measured by qPCR and expressed as percentage of input for each sample. Error bars are s.e.m. of three independent experiments (*p<0.05, **p<0.01 two-tail t test).
Oligodendrocyte progenitors (4×10^6) were crosslinked in 1% formaldehyde, lysed in nuclear lysis buffer (50 mM Tris-HCL (pH 8.0), 10 mM EDTA, 1% SDS, Protease Inhibitors (Roche) and PMSF) and sonicated using a Bioruptor (Diagenode) sonicator to produce chromatin with an average length of 500 base pairs. Chromatin was aliquoted and immunopreciptiated using protein A magnetic beads (Dynabeads-Invitrogen 100.01D) coated with 2 μg of antibodies to CBP (santa cruz sc-369), H3-K9ac (abcam ab4441), H3-K9ac and K14 (millipore 06-599), H3-K18ac (abcam ab1191). A mock immunopreciptitation was set-up as a control (No antibody). Immunoprecipitations were carried out overnight. […]
Quantitative PCR was performed using primers to detect the transcriptional start site of the Lmnb1 promoter; forward 5′-[…] […]

Experiment [2] concerns MOG-induced EAE. The experiment in a line: MOG-induced EAE in mice, treatment from day 4 after immunization. It is filed as in vivo, mouse. On the procedure:
FIG. 12A illustrates a score graph of clinical severity of EAE in mice injected with MOG as described herein. Each group was composed of 6-9 mice. Below the score, the graphs show the levels of myelin transcripts detected at the times denoted by asterisks in the score graph. 12B provides transcript levels detected in the spinal cord of mice harvested at the same time points as the asterisks in 12A.
An in vivo mouse model study was conducted to determine how treatment with 4c would modulate oligodendrocyte progenitor differentiation and impact repair after demyelination. In a first series of experiments, a model of immune-mediated demyelination was used. EAE was induced by subcutaneous injection of 300 μg of MOG35-55 peptide thoroughly emulsified in complete Freund's adjuvant containing heat-inactivated Mycobacterium tuberculosis in the mouse flank on day 0 and 7. Pertussis toxin (500 ng) was intraperitoneally injected on day 0 and 2. After immunization mice were observed and weighed daily and scored for severity of symptoms as follows: 0, no detectable symptoms; 1, loss of tail tone; 2, hindlimb weakness or abnormal gait; 3, complete paralysis of the hindlimbs; 4, complete hindlimb and forelimb paralysis; 5, death. A minimum of 6-9 animals received daily intraperitoneal injections of 4c, starting from day 4 after immunization with the MOG peptide (FIG. 12A) and weight and clinical score were recorded daily. Disease onset was similar in mice treated with 4c compared to DMSO-injected controls.

The test system of experiment [3] is MOG-induced EAE. The experiment in a line: MOG-induced EAE in mice, 7-day treatment started after onset of clinical symptoms. Particulars: treatment from day 18 for 7 days, mice with score 2.5-3.0; after 3-4 days of treatment. It is filed as in vivo, mouse. As for the experimental part:
FIG. 14 illustrates seven-day 4c treatment accelerates recovery from MOG-induced EAE even if started AFTER the onset of clinical symptoms.
This study was conducted to determine whether the effectiveness of 4c can be observed in animals even if started once the disease has progressed to peak clinical symptoms. For this reason, MOG-dependent EAE in mice was induced and the animals scored daily. On day 18 post-immunization mice with a score of 2.5-3.0 (paralysis of one leg and weakness of the other to paralysis of both hindlimbs) were selected and divided into two groups receiving either 4c or vehicle treatment for 7 days.

Setting [4] is: 0.24 μg/kg (10 nM), daily intraperitoneal from day 4.
[5] abbreviates: 2.4 μg/kg (100 nM), daily intraperitoneal from day 4.

On to `CC(=O)NCCCCn1c2c(c3ccccc31)C(=O)NCC2` [4c, 2,3,4,5-tetrahydro-5-(4′-acetamidobutyl)-1H-pyrido-[4,3-b]indol-1-one], for which, in experiment [1], the “acetylation of histone H3 at lysine 18 (H3K18ac) at promoters” value is recorded as “but not the acetylation of histone H3 at lysine 18 (H3K18ac) was decreased” and the “association of CBP with promoters” value is given as “decreased”. For the same molecule, in experiment [2] (setting [4]), the Average score was found to be 2.25, the Maximum score is recorded as 2.5, the “Number of animals with clinical signs” value is listed as 4 out of 7 and the “Number of mice with score <0.5” value is listed as 1/4. Also, the “recovery period compared to vehicle controls” value in experiment [2] (2.4 μg/Kg) is reported as “dramatically accelerated”. For the same molecule, the “myelin gene transcripts in spinal cord during recovery” value in experiment [2] (2.4 μg/Kg, similar levels of cytokines) is “significant increase of myelin gene transcripts”. Also, in experiment [2] (setting [5]), the Average score stood at 2.25, the “Number of animals with clinical signs” value was 5 out of 7 and the “Number of mice with score <0.5” value was 4/5. Further, the “disease onset compared to DMSO-injected controls” value in experiment [2] (daily intraperitoneal from day 4) is listed as “similar”. For the same molecule, in experiment [2] (day 18, vs vehicle-injected controls), the “disease severity at day 18” value is recorded as “less severe disease”. The “recovery when treatment started at peak clinical symptoms” value in experiment [3] was “showed signs of recovery”.
